Values joined by “and” are separate entries in the source; they are usually repeats but may differ in a detail not shown here. Equal entries are not always repeated.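 A five-concentration, 48-hour dose response in 96-well plates underlies each endpoint, interpolated linearly between surrounding concentrations. TGI marks complete inhibition of growth.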

Some test systems named below: CCRF-CEM leukemia; SW-620 colon; A498 renal; HCT-116 colon; UACC-257 melanoma; HCT-15 colon; KM12 colon; COLO 205 colon; OVCAR-5 ovarian.
What all share (assay): inhibition of tumour cell growth, NCI panel, 48 h

As for `Cn1c(=O)c(NC(=O)C(Cl)(Cl)Cl)nc2ccccc21`, the TGI in the assay on CCRF-CEM leukemia, with SW-620 colon, in the assay with A498 renal, in the assay on HCT-116 colon, with UACC-257 melanoma and with HCT-15 colon was > 100 µM in each case. For the same compound, the TGI in the assay on KM12 colon and in the assay with COLO 205 colon was > 100 µM throughout.

Take `COC(=O)C1=C(c2ccc(OC)c(OC)c2)OC(c2cc(OC)c(OC)c(OC)c2)C1` (stereo unspecified): the TGI in the assay with CCRF-CEM leukemia was > 100 µM; in the assay on SW-620 colon it was > 100 µM; in the assay on A498 renal it was 63 µM; with UACC-257 melanoma, > 100 µM; with OVCAR-5 ovarian, > 100 µM; in the assay with KM12 colon, > 100 µM.

Regarding `O=C(CCC(=O)Nc1ccc(Cl)c(Cl)c1)CC(=O)c1ccc(F)cc1`, the TGI in the assay on CCRF-CEM leukemia, with SW-620 colon, in the assay with HCT-116 colon, with UACC-257 melanoma, in the assay on OVCAR-5 ovarian and in the assay on KM12 colon was > 100 µM in each case. The TGI with COLO 205 colon was > 100 µM.

For the compound `CN(C)c1nnnn1-c1c(N)n(C)c(=O)n(C)c1=O`, the TGI with CCRF-CEM leukemia, with SW-620 colon, with A498 renal, with HCT-116 colon, in the assay on UACC-257 melanoma and with OVCAR-5 ovarian was > 100 µM throughout. Also, the TGI in the assay with HCT-15 colon, in the assay with KM12 colon and in the assay with COLO 205 colon was > 100 µM each time.

Regarding `CCCCCCCCCCCCCCCCNCCCN(C)CCCN`, the TGI amounted to 36.3 µM in the assay with SW-620 colon; 34 µM in the assay on A498 renal; 38 µM with HCT-116 colon; 40.4 µM with UACC-257 melanoma; 31.7 µM in the assay on OVCAR-5 ovarian; 32.7 µM in the assay with HCT-15 colon. The TGI in the assay on KM12 colon was found to be 33 µM; with COLO 205 colon, 46.6 µM.

With `CCOc1ccc2c(c1)[n+]([O-])c(-c1ccc(Br)cc1)c(N)[n+]2[O-]`, the TGI in the assay on CCRF-CEM leukemia, with SW-620 colon, in the assay on A498 renal, in the assay on UACC-257 melanoma, in the assay with OVCAR-5 ovarian and in the assay on HCT-15 colon was > 100 µM throughout. Further, the TGI with KM12 colon was > 100 µM; in the assay with COLO 205 colon, 52.4 µM.

Regarding `CN(C)c1ccc(/C=C/c2ccc(/C=C/c3ccc(N(C)C)cc3)cc2)cc1`, the TGI with CCRF-CEM leukemia, in the assay with SW-620 colon, in the assay with A498 renal, with HCT-116 colon, in the assay with UACC-257 melanoma and with OVCAR-5 ovarian was > 100 µM throughout. The TGI in the assay with HCT-15 colon, in the assay on KM12 colon and in the assay with COLO 205 colon was > 100 µM each time.

With `C[N+](C)(C)CC1CCC/C1=N/O` (stereo unspecified), the TGI with CCRF-CEM leukemia was 39.1 µM; in the assay on SW-620 colon, 19.5 µM; with A498 renal, > 100 µM; in the assay with HCT-116 colon, 46 µM; with UACC-257 melanoma it was > 100 µM; in the assay on OVCAR-5 ovarian, > 100 µM. Also, the values for the TGI in the assay with HCT-15 colon, in the assay with KM12 colon and with COLO 205 colon were 38.8 µM, > 100 µM and 38.7 µM, respectively.

Take `Cc1nnc2c3nnc(C)n3c3ccccc3n12`: the TGI in the assay with CCRF-CEM leukemia, with SW-620 colon, in the assay with A498 renal, in the assay with HCT-116 colon, in the assay with UACC-257 melanoma and in the assay on OVCAR-5 ovarian was > 100 µM in each case. Further, the TGI in the assay on HCT-15 colon, in the assay with KM12 colon and in the assay on COLO 205 colon was > 100 µM each time.

Consider `N#CC1CCCCOCCOCCOCCOCCOCCCCCC1=O` (stereo unspecified), for which the TGI with CCRF-CEM leukemia, in the assay with SW-620 colon, in the assay with A498 renal, with HCT-116 colon, in the assay on UACC-257 melanoma and in the assay on OVCAR-5 ovarian was > 100 µM each time. The TGI in the assay on HCT-15 colon, in the assay on KM12 colon and in the assay on COLO 205 colon was > 100 µM throughout.

Turning to `O=C(/C=C/c1ccco1)c1ccc(NCc2nc3ccccc3[nH]2)cc1`, the TGI in the assay with CCRF-CEM leukemia was determined as 33.5 µM; with SW-620 colon, 34.3 µM; with A498 renal it was 27.5 µM; in the assay on UACC-257 melanoma it was 23.2 µM; in the assay on OVCAR-5 ovarian, 31.5 µM; in the assay on HCT-15 colon it was 30.3 µM. Also, the TGI with KM12 colon worked out at 22.6 µM; with COLO 205 colon, 26.7 µM.

Take `S=c1nc(COc2ccc(Cl)cc2Cl)[nH][nH]1`: the TGI in the assay on CCRF-CEM leukemia, in the assay with SW-620 colon, in the assay with A498 renal, in the assay on HCT-116 colon, in the assay on UACC-257 melanoma and in the assay on OVCAR-5 ovarian was > 100 µM in each case. For the same compound, in the assay on HCT-15 colon, the TGI is > 100 µM.

In the case of `CS(=O)(=O)NNS(=O)(=O)c1ccccc1`, the TGI with CCRF-CEM leukemia, in the assay on SW-620 colon, in the assay on A498 renal, with HCT-116 colon, in the assay with UACC-257 melanoma and with HCT-15 colon was > 100 µM each time. Moreover, the TGI with KM12 colon and with COLO 205 colon was > 100 µM throughout.

For `CC(=O)NC1C(OCc2ccccc2)OC(CO)C(O)C1OC(C)C(=O)N[C@@H](C)C(=O)N[C@H](CCC(=O)OCCNc1c2ccccc2nc2cccc([N+](=O)[O-])c12)C(N)=O` (stereo partly specified), the TGI in the assay with CCRF-CEM leukemia is > 0.1 µM and 0.0189 µM; with SW-620 colon it was 0.00283 µM; in the assay with A498 renal, 0.0199 µM; in the assay on HCT-116 colon, 0.00243 µM; in the assay with UACC-257 melanoma, 0.0201 µM; with OVCAR-5 ovarian, 0.0061 µM. The TGI in the assay on HCT-15 colon stood at 0.00156 µM; with KM12 colon, 0.00538 µM; in the assay with COLO 205 colon, 0.0026 µM.

Consider `NC(=O)c1c([N+](=O)[O-])cc(C(F)(F)F)cc1[N+](=O)[O-]`, for which the TGI in the assay on SW-620 colon was > 100 µM; in the assay with A498 renal, > 100 µM; in the assay with HCT-116 colon, > 100 µM; in the assay with UACC-257 melanoma it was 99.8 µM; with OVCAR-5 ovarian it was > 100 µM; in the assay on KM12 colon, > 100 µM. Moreover, the TGI in the assay with COLO 205 colon was found to be 62.7 µM.

Turning to `Cc1ccc(NC(=O)C2C(=O)N(c3ccc(C)c(C)c3)C(=O)/C2=N\NC(N)=O)cc1C` (stereo unspecified), the TGI in the assay on CCRF-CEM leukemia, in the assay on SW-620 colon, with A498 renal, with HCT-116 colon, in the assay on UACC-257 melanoma and with OVCAR-5 ovarian was > 100 µM in each case. For the same compound, the TGI in the assay on HCT-15 colon, in the assay on KM12 colon and in the assay with COLO 205 colon was > 100 µM throughout.

For the compound `O=S(=O)(O)c1ccc(N=Nc2nc(C(F)(F)F)c(C(F)(F)F)[nH]2)cc1`, the TGI in the assay with CCRF-CEM leukemia was > 100 µM; with SW-620 colon, > 100 µM; with HCT-116 colon it was > 100 µM; in the assay on UACC-257 melanoma it was > 100 µM; with OVCAR-5 ovarian, 36 µM; with HCT-15 colon, > 100 µM. Moreover, the TGI in the assay with KM12 colon and in the assay with COLO 205 colon was > 100 µM in each case.

Regarding `Cc1noc2c1C(=O)CCC2`, the TGI with CCRF-CEM leukemia, in the assay with SW-620 colon, in the assay on HCT-116 colon, in the assay with UACC-257 melanoma, in the assay on OVCAR-5 ovarian and with COLO 205 colon was > 100 µM throughout.

For the compound `CCCCC(C)C(OC(=O)CC(CC(=O)O)C(=O)O)C(CC(C)CC(O)CCCCC(O)CC(O)C(C)N)OC(=O)CC(CC(=O)O)C(=O)O` (stereo unspecified), the TGI with CCRF-CEM leukemia, with SW-620 colon, with A498 renal, in the assay on HCT-116 colon, with UACC-257 melanoma and in the assay with OVCAR-5 ovarian was > 100 µM each time. Besides, the TGI in the assay on HCT-15 colon, with KM12 colon and in the assay with COLO 205 colon was > 100 µM throughout.

With `O=C(CSc1ncn[nH]1)C[P+](c1ccccc1)(c1ccccc1)c1ccccc1`, the TGI with CCRF-CEM leukemia, in the assay on SW-620 colon, in the assay on UACC-257 melanoma, in the assay with OVCAR-5 ovarian, in the assay with HCT-15 colon and in the assay with KM12 colon was > 100 µM in each case. In the assay on COLO 205 colon, the TGI is > 100 µM.

As for `ON(Cc1ccccc1)C(=S)c1ccccc1`, the TGI is > 27 µM with CCRF-CEM leukemia; > 100 µM in the assay with SW-620 colon; > 100 µM in the assay on A498 renal; 51.6 µM with HCT-116 colon; 39.4 µM with UACC-257 melanoma; > 100 µM in the assay with OVCAR-5 ovarian. Besides, the figures for the TGI in the assay with HCT-15 colon, in the assay on KM12 colon and in the assay with COLO 205 colon were > 100 µM, > 63.6 µM and > 93.8 µM, respectively.

As to `C#CC[N+](C)(CC#C)CC#C`, the TGI in the assay on CCRF-CEM leukemia, with SW-620 colon, in the assay with UACC-257 melanoma, in the assay on OVCAR-5 ovarian, in the assay with HCT-15 colon and in the assay with KM12 colon was > 100 µM in each case. The TGI in the assay on COLO 205 colon is > 100 µM.

In the case of `O=[N+]([O-])c1ccc(-c2noc(-c3ccc(Cl)cc3)c2C2=NCCN2)cc1`, the TGI in the assay with CCRF-CEM leukemia, with SW-620 colon, in the assay with HCT-116 colon, in the assay on UACC-257 melanoma, in the assay on OVCAR-5 ovarian and in the assay on HCT-15 colon was > 100 µM each time. Besides, the TGI with KM12 colon and with COLO 205 colon was > 100 µM each time.

As for `CN(C)C(=Nc1nc(=[N+](C)C)ss1)N(C)C`, the TGI with CCRF-CEM leukemia, with SW-620 colon, in the assay with A498 renal, in the assay with UACC-257 melanoma, with OVCAR-5 ovarian and in the assay with HCT-15 colon was > 100 µM throughout. For the same compound, the TGI in the assay on KM12 colon is > 100 µM.

For the origin of these results see PubChem BioAssay (NCI).
